This note sets out measurements from ChEMBL document CHEMBL1629482, “Synthesis and antitubercular activity of new mefloquine-oxazolidine derivatives” (Eur J Med Chem, 2010).

Data set [1] in a line: Cytotoxicity against mouse macrophage assessed as cell viability at 25 uM after 18 hrs by MTT assay. The data set is classed as cell-based. The following applies: mouse macrophages, read-out: Activity.
Data set [2] in a line: Cytotoxicity against mouse macrophage assessed as cell viability at 12.5 uM after 18 hrs by MTT assay. The class given is cell-based. The conditions noted are these: mouse macrophages, read-out: Activity. Background: Tetrazolium dyes change colour on reduction, which living cells bring about.
Data set [3] has as its system Mycobacterium tuberculosis. The data set is described as follows: Antitubercular activity against Mycobacterium tuberculosis ATCC 27294 by Alamar blue assay. The data set is classed as functional.
A short description of data set [4]: Cytotoxicity against mouse macrophage assessed as cell viability at 50 uM after 18 hrs by MTT assay. The data set is classed as cell-based. The following applies: mouse macrophages, read-out: Activity.
For data set [5], the system named is Mycobacterium avium. The data set is described as follows: Antitubercular activity against Mycobacterium avium by Broth micro dilution method. The data set is classed as functional.
For data set [6], the system named is Mycobacterium tuberculosis. The data set is described as follows: Antitubercular activity against Mycobacterium tuberculosis. The class given is functional.

Converted amounts (≈) assume the structure as drawn.

As usually defined, the MIC is the least concentration at which growth counts as inhibited. A low value points to a more susceptible organism. For the compound `O=[N+]([O-])c1cccc(C2O[C@@H](c3cc(C(F)(F)F)nc4c(C(F)(F)F)cccc34)[C@H]3CCCCN23)c1` (stereo partly specified), the viability at 18 h, 25 µM in data set [1] was 100%. The viability at 18 h, 12.5 µM in data set [2] was determined as 100%. For the same compound, the MIC in data set [3] was above 250 µM. For the same compound, in data set [4], the viability at 18 h, 50 µM came out at 100%.
For `FC(F)(F)c1cc([C@H]2O[C@@H](c3ccccc3)N3CCCC[C@@H]23)c2cccc(C(F)(F)F)c2n1`, the viability at 18 h, 25 µM in data set [1] amounted to 96%. Also, the viability at 18 h, 12.5 µM in data set [2] was 100%. Moreover, the minimal inhibitory concentration (MIC) in data set [3] amounted to 26.8 µM (≈ 12.5 µg/mL). The viability at 18 h, 50 µM in data set [4] amounted to 95%.
The matching figures for `O=[N+]([O-])c1ccccc1C1O[C@@H](c2cc(C(F)(F)F)nc3c(C(F)(F)F)cccc23)[C@H]2CCCCN12` (mixture of isomers): 100%, 100%, above 250 µM and 100%.
For `COc1cccc(C2O[C@@H](c3cc(C(F)(F)F)nc4c(C(F)(F)F)cccc34)[C@H]3CCCCN23)c1` (mixture of isomers) the same measures were 80%, 100%, 25.2 µM and 80%.
`COc1ccc(C2O[C@@H](c3cc(C(F)(F)F)nc4c(C(F)(F)F)cccc34)[C@H]3CCCCN23)cc1` (mixture of isomers): the viability at 18 h, 25 µM in data set [1] was 100%. Further, in data set [2], the viability at 18 h, 12.5 µM worked out at 100%. Further, in data set [3], it took 25.2 µM to inhibit growth (MIC). Moreover, the viability at 18 h, 50 µM in data set [4] is 100%.
For the compound `O=[N+]([O-])c1ccc(C2O[C@@H](c3cc(C(F)(F)F)nc4c(C(F)(F)F)cccc34)[C@H]3CCCCN23)cc1` (mixture of isomers), the viability at 18 h, 25 µM in data set [1] stood at 100%. Also, in data set [2], the viability at 18 h, 12.5 µM is 100%. For the same compound, the MIC in data set [3] was above 250 µM. Moreover, the viability at 18 h, 50 µM in data set [4] worked out at 100%.
With `FC(F)(F)c1cc([C@@H]2OC(c3ccccc3Cl)N3CCCC[C@H]23)c2cccc(C(F)(F)F)c2n1` (mixture of isomers), the viability at 18 h, 25 µM in data set [1] came to 100%. Also, in data set [2], the viability at 18 h, 12.5 µM was determined as 100%. This compound gave a minimum inhibitory concentration (MIC) in data set [3] above 250 µM. Also, in data set [4], the viability at 18 h, 50 µM came to 100%.
For the compound `FC(F)(F)c1cc([C@@H]2OC(c3cccc(Cl)c3)N3CCCC[C@H]23)c2cccc(C(F)(F)F)c2n1` (mixture of isomers), in data set [1], the viability at 18 h, 25 µM was found to be 100%. The viability at 18 h, 12.5 µM in data set [2] was determined as 100%. In addition, the MIC in data set [3] was above 250 µM. In addition, the viability at 18 h, 50 µM in data set [4] came out at 90%.
On to `FC(F)(F)c1cc([C@@H]2OC(c3ccc(Cl)cc3)N3CCCC[C@H]23)c2cccc(C(F)(F)F)c2n1` (mixture of isomers), for which the viability at 18 h, 25 µM in data set [1] was determined as 100%. The viability at 18 h, 12.5 µM in data set [2] stood at 100%. The same compound registered an MIC in data set [3] above 250 µM. Further, the viability at 18 h, 50 µM in data set [4] turned out to be 100%.
`FC(F)(F)c1cc([C@@H]2OC(c3cccc(Br)c3)N3CCCC[C@H]23)c2cccc(C(F)(F)F)c2n1` (mixture of isomers): the viability at 18 h, 25 µM in data set [1] was found to be 85%. Further, in data set [2], the viability at 18 h, 12.5 µM was found to be 100%. This compound displayed a minimum inhibitory concentration (MIC) in data set [3] above 250 µM. Also, the viability at 18 h, 50 µM in data set [4] came out at 85%.
As to `FC(F)(F)c1cc([C@@H]2OC(c3ccc(Br)cc3)N3CCCC[C@H]23)c2cccc(C(F)(F)F)c2n1` (mixture of isomers), the viability at 18 h, 25 µM in data set [1] amounted to 100%. In addition, the viability at 18 h, 12.5 µM in data set [2] amounted to 100%. The same compound gave an MIC in data set [3] above 250 µM. Further, in data set [4], the viability at 18 h, 50 µM was 100%.
On to `Fc1ccccc1C1O[C@@H](c2cc(C(F)(F)F)nc3c(C(F)(F)F)cccc23)[C@H]2CCCCN12` (mixture of isomers), for which, in data set [1], the viability at 18 h, 25 µM worked out at 100%. In addition, in data set [2], the viability at 18 h, 12.5 µM was found to be 100%. In data set [3], the MIC is above 250 µM. In data set [4], the viability at 18 h, 50 µM turned out to be 100%.
As for `Fc1ccc(C2O[C@@H](c3cc(C(F)(F)F)nc4c(C(F)(F)F)cccc34)[C@H]3CCCCN23)cc1` (mixture of isomers), the viability at 18 h, 25 µM in data set [1] was found to be 84%. Also, the viability at 18 h, 12.5 µM in data set [2] was found to be 93%. Further, in data set [3], it took 25.8 µM to inhibit growth (MIC). Further, the viability at 18 h, 50 µM in data set [4] came to 82%.
For `Oc1ccccc1C1O[C@@H](c2cc(C(F)(F)F)nc3c(C(F)(F)F)cccc23)[C@H]2CCCCN12` (mixture of isomers) the same measures were 85%, 100%, 25.9 µM and 85%.
Take `Oc1ccc(C2O[C@@H](c3cc(C(F)(F)F)nc4c(C(F)(F)F)cccc34)[C@H]3CCCCN23)cc1` (mixture of isomers): the viability at 18 h, 25 µM in data set [1] turned out to be 80%. Also, in data set [2], the viability at 18 h, 12.5 µM came to 100%. In data set [3], this compound showed a minimal inhibitory concentration (MIC) of 25.9 µM. In data set [4], the viability at 18 h, 50 µM came out at 80%.
Consider `COc1ccccc1C1O[C@@H](c2cc(C(F)(F)F)nc3c(C(F)(F)F)cccc23)[C@H]2CCCCN12` (mixture of isomers), for which the viability at 18 h, 25 µM in data set [1] worked out at 100%. For the same compound, the viability at 18 h, 12.5 µM in data set [2] was determined as 100%. Moreover, the MIC in data set [3] was found to be 12.6 µM. For the same compound, in data set [4], the viability at 18 h, 50 µM amounted to 100%.
In turn, `CC[C@@H](CO)NCCN[C@@H](CC)CO` [ETHAMBUTOL] displayed an MIC in data set [3] of 15.9 µM (≈ 3.25 µg/mL).
With `OC(c1cc(C(F)(F)F)nc2c(C(F)(F)F)cccc12)C1CCCCN1` (stereo unspecified) [MEFLOQUINE], the viability at 18 h, 25 µM in data set [1] is 77%. The figures for the minimal inhibitory concentration (MIC) in data set [5], in data set [6] and in data set [3] were 21.1 µM (≈ 7.98 µg/mL), 21.1 µM (≈ 7.98 µg/mL) and 33 µM (≈ 12.5 µg/mL), respectively. In addition, the viability at 18 h, 12.5 µM in data set [2] amounted to 81%. Also, in data set [4], the viability at 18 h, 50 µM came to 76%.
